Data set [1] deals with Bacillus subtilis ATCC 6633. Kind of data set: Paper-disc agar-diffusion assay system (Plate Assay, Table VIII). It is filed as cell-based. The following applies: samples at 1 mg/ml, as Na-K salts; dried-broth reference standard = 100 units/ml. As for the experimental part:
(§1) The antimicrobial activity of two typical A-32887 acyl ester derivatives is compared with that of A-32887 (each as Na-K salts) in Table VIII. Activity against illustrative bacteria is measured by the conventional disc-diffusion method. In addition, the results of a conventional paper-disc agar-diffusion assay system (Plate Assay) against Bacillus subtilis ATCC 6633 are reported. The activity in this test is quantitated and uses a dried-broth reference standard which is assigned an arbitrary potency of 100 units/ml. The samples were assayed at 1 mg/ml.
(In general: Agar diffusion results depend on both activity and mobility in agar.)

Data set [2] is classed as physicochemical. Particulars: 80% aqueous dimethylformamide. The source says:
Electrometric titration of A-32887 methyl ether derivative (Na salt) in 80% aqueous dimethylformamide indicates the presence of a titratable group with a pKa value of about 5.4.

The test system of a further data set is Bacillus subtilis. Kind of data set: Conventional disc-diffusion method (Table VIII). It is filed as cell-based. The following applies: as Na-K salts, samples at 1 mg/ml. How it is done: as §1
The next data set has as its system Staphylococcus aureus. Nature of the data set: Conventional disc-diffusion method (Table VIII). Type of data set: cell-based. The following applies: as Na-K salts; samples at 1 mg/ml. How it is done: as §1
The subject of the next data set is Micrococcus lutea. Nature of the data set: Conventional disc-diffusion method (Table VIII). Type of data set: cell-based. Particulars: as Na-K salts; samples at 1 mg/ml. How it is done: as §1

Results on one compound are retold here after patent US4133876A, “Antibiotic A-32887 and process for production thereof” (Eli Lilly and Company, priority 1977, dated 1979).

On to `CO[C@H]1CC[C@H](OC2[C@@H](C)[C@@](C)(O)O[C@H]([C@H]3CC[C@H]([C@@H]4CC[C@H]([C@@]5(C)O[C@]6(O[C@H](C[C@@H]7O[C@](O)([C@@H](O)C(=O)O)[C@@H](C)[C@H](OC)[C@@]7(C)OC)C[C@@H](OC)[C@H]6C)[C@H](C)[C@H]5OC)O4)O3)[C@H]2C)O[C@@H]1C.[K+].[Na+]` (some centres unmarked) [A-32887], for which the “Plate Assay” value in data set [1] was 1350 units/ml. In data set [2], this compound registered a pKa of 4.60. Moreover, in “Ionophore properties”, the “ion-binding and ion-transport properties” value is “exhibits ion-binding and iontransport properties”. Besides, the “cation permeability of membranes” value in “Ionophore properties” (natural and artificial membranes) is listed as “alters the cation permeability”. Moreover, the “Activity by disc-diffusion, Bacillus subtilis*” value in the data set on Bacillus subtilis (Minimal media) turned out to be 30. For the same compound, the “Activity by disc-diffusion, Bacillus subtilis” value in the data set on Bacillus subtilis was found to be 18. In addition, in the data set with Staphylococcus aureus, the “Activity by disc-diffusion, Staphylococcus aureus” value is given as 16. Also, in the data set on Micrococcus lutea, the “Activity by disc-diffusion, Micrococcus lutea” value is listed as 16.

In general, pKa refers to the negative logarithm of the acid dissociation constant. A lower pKa goes with a stronger acid or weaker base.
